In ChEMBL document CHEMBL1201862, “PubChem BioAssay data set” (2004):
Active and inactive are the calls of the source.

Legend:
[1] = test system: BJ; test: BJ-TERT fibroblast viability loss – cell-based, RAS-independent, luminescence, dose response (AID 1933); assay type: functional; conditions: Homo sapiens
[2] = viability loss in HEK293 cells – cell-based, plate reader, cherry-picked samples, cytotoxicity control, dose response (AID 743446); assay type: functional
[3] = DRD fibroblast viability loss – cell-based, non-viral oncogenic, luminescence, dose response (AID 1934); assay type: functional; conditions: Homo sapiens
[4] = test system: BJ; test: cells; assay type: functional, cell-based; conditions: Homo sapiens
[5] = test system: BJ; test: BJ-TERT-LT-ST fibroblast viability loss – cell-based, RAS-independent, luminescence, dose response (AID 1935); assay type: functional; conditions: Homo sapiens;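 also: BJ fibroblasts immortalized with TERT plus LT and ST oncogenes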
[6] = A549 cell cytotoxicity, dose response, cytotoxicity control, plate reader, cherry-pick, antagonist series (AID 743412); assay type: functional, cell-based
[7] = toxicity toward HepG2 liver cells – cell-based, plate reader, cherry-pick, antagonist series, cytotoxicity control, dose response (AID 743416); assay type: functional
[8] = blockers of bursicon-stimulated LGR2 cAMP reporter – cell-based, HEK293, CRE-luciferase reporter, cherry pick, set 2, dose response (AID 743343); assay type: functional;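 also: transfected cells were stimulated with diluted bursicon conditioned medium after compound addition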
[9] = blockade of melanocortin 4 receptor signaling – cell-based, plate reader, cherry pick, counter-screen for LGR2 antagonist project, dose response (AID 743444); assay type: functional;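 also: transfected HEK 293 cells stimulated with alpha-MSH peptide; potency of inhibitors of the alpha-MSH evoked signal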
[10] = target: T1, Protein RecA (Mycobacterium tuberculosis, UniProt P9WHJ3); test: Fluorescence Cell-Free Homogeneous Dose Retest to Identify Inhibitors of RecA-Intein Splicing Activity. [Related pubchem assays (depositor defined):AID2097, AID2223, AID489010, AID492950]; assay type: functional
T1 sequence (P9WHJ3 whole entry): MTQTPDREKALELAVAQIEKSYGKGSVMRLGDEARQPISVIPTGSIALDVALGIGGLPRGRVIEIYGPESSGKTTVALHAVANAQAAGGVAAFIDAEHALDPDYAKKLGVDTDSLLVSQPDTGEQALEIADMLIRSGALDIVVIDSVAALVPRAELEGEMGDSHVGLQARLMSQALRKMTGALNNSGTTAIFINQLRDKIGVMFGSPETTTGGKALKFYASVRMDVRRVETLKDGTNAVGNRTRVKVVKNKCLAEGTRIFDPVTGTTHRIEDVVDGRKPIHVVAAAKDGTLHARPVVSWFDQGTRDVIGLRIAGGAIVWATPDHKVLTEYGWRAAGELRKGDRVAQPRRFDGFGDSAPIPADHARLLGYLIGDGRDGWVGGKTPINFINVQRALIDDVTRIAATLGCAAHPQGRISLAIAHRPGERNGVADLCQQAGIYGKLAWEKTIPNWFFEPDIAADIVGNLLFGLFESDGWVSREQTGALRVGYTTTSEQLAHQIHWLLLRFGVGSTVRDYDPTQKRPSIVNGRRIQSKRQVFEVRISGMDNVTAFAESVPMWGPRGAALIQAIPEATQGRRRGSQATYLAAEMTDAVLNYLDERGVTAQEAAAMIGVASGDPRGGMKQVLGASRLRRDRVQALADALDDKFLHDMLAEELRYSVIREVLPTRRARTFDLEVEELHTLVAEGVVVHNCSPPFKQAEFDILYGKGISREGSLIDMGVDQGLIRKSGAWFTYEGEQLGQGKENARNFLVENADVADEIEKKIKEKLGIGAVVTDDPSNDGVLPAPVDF

[11] = target: T2, Replicative DNA helicase DnaB (Mycobacterium tuberculosis, UniProt P9WMR3); test: DnaB intein splicing inhibitors, dose response, biochemical, cell-free fluorescence (AID 449749); assay type: functional
T2 sequence (P9WMR3 whole entry): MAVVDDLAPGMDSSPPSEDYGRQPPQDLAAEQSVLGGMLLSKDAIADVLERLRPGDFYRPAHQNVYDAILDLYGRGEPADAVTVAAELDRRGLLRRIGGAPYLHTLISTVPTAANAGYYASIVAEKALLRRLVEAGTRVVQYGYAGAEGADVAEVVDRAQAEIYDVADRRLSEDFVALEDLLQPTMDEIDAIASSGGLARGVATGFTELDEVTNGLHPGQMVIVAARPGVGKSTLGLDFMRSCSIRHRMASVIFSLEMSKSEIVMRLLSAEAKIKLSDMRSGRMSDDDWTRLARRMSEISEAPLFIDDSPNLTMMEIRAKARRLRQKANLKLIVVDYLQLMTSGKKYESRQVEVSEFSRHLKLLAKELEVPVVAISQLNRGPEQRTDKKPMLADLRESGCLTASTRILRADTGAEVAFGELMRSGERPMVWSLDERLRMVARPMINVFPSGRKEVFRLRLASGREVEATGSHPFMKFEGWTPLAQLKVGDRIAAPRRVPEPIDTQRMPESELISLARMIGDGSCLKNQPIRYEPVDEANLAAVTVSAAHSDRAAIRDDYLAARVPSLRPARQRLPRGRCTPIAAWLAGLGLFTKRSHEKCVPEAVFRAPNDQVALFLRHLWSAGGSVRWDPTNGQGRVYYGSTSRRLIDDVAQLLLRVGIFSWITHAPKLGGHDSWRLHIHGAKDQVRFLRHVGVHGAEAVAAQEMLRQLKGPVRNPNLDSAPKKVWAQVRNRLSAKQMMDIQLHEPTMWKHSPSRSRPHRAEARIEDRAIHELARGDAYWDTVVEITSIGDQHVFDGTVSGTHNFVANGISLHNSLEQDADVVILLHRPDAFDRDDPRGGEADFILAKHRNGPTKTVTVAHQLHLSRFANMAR

[12] = growth inhibition of PfATP4-mutant resistant parasites – NITD609-resistant line, SYBR Green, dry powder, dose response (AID 1159571); assay type: functional, cell-based;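 also: parasites synchronized at ring stage by sorbitol before testing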
[13] = P. falciparum Dd2 growth inhibitors, dose response, SYBR Green, cherry-picked samples (AID 1159567); assay type: functional, cell-based
[14] = Dd2 malaria parasite growth inhibition potency – SYBR Green, dry powder samples, dose response (AID 1159566); assay type: functional, cell-based;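 also: potency for growth inhibition with lower SYBR green DNA signal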
[15] = growth inhibition of yeast DHODH-expressing 3D7 parasites – SYBR Green, dry powder samples, dose response (AID 1159570); assay type: functional, cell-based;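 also: parasite growth measured after 72 hours of compound exposure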
[16] = toxicity to human HepG2 hepatoma cells – cell-based, plate reader, dry powder samples, cytotoxicity control, dose response (AID 1159569); assay type: functional;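 also: inhibitor potency with signal falling toward the positive control level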
[17] = Luminescence Cell-Based Dose Confirmation HTS to Identify Inhibitors of Platelet Dense Granule Release. [Related pubchem assays: 1663 (Primary HTS), 1678 (Summary of Project)]; assay type: functional
[18] = target: T3, Microphthalmia-associated transcription factor (Homo sapiens, UniProt O75030); test: reducers of TRPM1 reporter luminescence, concentration series – cell-based, SK-MEL-5, cherry-picked, set 3, MITF inhibitor project, dose response (AID 493073); assay type: functional;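 also: SK-MEL-5 melanoma cells with luciferase driven by the MITF target TRPM1 promoter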
T3 sequence (O75030 whole entry): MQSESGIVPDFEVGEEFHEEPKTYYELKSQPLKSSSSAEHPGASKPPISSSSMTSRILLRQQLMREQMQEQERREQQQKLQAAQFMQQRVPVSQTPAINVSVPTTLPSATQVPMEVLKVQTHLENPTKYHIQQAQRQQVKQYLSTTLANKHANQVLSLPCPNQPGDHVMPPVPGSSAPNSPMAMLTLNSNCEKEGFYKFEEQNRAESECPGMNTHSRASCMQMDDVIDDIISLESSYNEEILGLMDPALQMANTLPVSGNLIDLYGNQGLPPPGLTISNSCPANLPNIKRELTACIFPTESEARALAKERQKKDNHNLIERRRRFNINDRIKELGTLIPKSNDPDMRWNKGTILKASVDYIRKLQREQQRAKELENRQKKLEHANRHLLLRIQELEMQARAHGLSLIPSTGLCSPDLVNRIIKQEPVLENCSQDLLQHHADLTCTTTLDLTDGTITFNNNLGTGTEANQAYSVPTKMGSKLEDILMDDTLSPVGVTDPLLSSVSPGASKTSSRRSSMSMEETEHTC

[19] = target: Luciferin 4-monooxygenase (Photinus pyralis, UniProt P08659); test: inhibition of purified Photinus pyralis luciferase – biochemical, luminescence, dose response (AID 1891)
Sequence of Luciferin 4-monooxygenase (P08659 whole entry): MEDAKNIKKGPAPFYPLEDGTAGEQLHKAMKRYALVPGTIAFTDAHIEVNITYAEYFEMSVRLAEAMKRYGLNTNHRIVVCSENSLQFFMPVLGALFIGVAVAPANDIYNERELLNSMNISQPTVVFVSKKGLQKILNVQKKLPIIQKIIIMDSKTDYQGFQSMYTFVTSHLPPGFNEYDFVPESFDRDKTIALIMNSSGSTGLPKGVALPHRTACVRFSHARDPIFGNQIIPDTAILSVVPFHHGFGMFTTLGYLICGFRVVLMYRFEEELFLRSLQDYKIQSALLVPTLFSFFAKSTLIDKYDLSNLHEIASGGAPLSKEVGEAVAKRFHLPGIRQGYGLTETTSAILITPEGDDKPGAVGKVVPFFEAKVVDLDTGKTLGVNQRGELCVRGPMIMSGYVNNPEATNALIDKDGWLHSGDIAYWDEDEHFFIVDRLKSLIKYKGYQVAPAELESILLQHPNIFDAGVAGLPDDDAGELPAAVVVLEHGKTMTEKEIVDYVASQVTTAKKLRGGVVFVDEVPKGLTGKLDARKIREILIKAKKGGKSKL

Structure (SMILES)	EC50 [1]	AC50 [2]	EC50 [3]	EC50 [4]	EC50 [5]	AC50 [6]	AC50 [7]	AC50 [8]	AC50 [9]	EC50 [10]	AC50 [11]	AC50 [12]	AC50 [13]	AC50 [14]	AC50 [15]	AC50 [16]	EC50 [17]	AC50 [18]	EC50 [19]
O=[N+]([O-])c1ccc(Sc2nnnn2-c2ccccc2)nc1	6.26 µM (active)	12.5 µM (active)	9.86 µM (active)	63.6 µM (inconclusive)	> 150 µM (inconclusive)	18.5 µM (active)	15.7 µM (active)	14.9 µM (active)	17.6 µM (active)	5.61 µM (active)	14.5 µM (active)								
C[C@@H]1CN([C@@H](C)CO)C(=O)c2ccccc2-c2ccccc2CO[C@H]1CN(C)C(=O)Nc1cccc(Cl)c1Cl												0.437 µM (active)	0.418 µM (active)	0.107 µM (active)	0.0978 µM (active)	> 100 µM (inactive)			
COc1cc(SC)ccc1C(=O)Nc1ncc(C)s1		> 52 µM (inactive)						1 µM (active)	1.01 µM (active)								11.6 µM (active)	3.65 µM (active)	8.16 µM (active)
